As usually defined, the IC50 is the concentration that gives 50% inhibition. Read a low IC50 as higher potency.

Sequence of mGlyT-1b (P28571 other isoform, or with tags, fused parts or gaps isoform P28571-2): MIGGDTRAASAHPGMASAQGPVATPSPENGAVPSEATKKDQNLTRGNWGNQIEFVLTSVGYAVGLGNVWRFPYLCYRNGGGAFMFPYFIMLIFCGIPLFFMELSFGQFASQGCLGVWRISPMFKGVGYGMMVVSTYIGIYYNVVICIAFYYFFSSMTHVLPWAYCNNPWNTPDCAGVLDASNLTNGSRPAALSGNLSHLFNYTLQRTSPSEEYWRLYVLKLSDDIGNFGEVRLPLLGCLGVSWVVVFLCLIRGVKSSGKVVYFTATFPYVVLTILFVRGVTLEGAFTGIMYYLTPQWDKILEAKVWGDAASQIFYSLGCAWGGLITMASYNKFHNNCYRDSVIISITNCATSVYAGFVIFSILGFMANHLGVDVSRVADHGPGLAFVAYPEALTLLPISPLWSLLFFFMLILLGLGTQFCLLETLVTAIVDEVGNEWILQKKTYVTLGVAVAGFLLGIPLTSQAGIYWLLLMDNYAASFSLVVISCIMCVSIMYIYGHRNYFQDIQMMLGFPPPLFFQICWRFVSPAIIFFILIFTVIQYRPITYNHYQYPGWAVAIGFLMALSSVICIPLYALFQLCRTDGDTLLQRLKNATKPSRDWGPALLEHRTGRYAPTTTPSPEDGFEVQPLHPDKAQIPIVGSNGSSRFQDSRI

This assay concerns the target mGlyT-1b (Mus musculus (Mouse), UniProt P28571). The experiment in a line: Glycine Uptake Inhibition Assay (mGlyT-1b). The assay is classed as cell-based. As to conditions: [3H]-glycine uptake in Flp-in-CHO cells stably transfected with mGlyT1b cDNA; 20 min preincubation at 22° C. On the procedure: DMEM complete medium: Nutrient mixture F-12 (Gibco Life-technologies), fetal bovine serum (FBS) 5%, (Gibco life technologies), Penicillin/Streptomycin 1% (Gibco life technologies), Hygromycin 0.6 mg/ml (Gibco life technologies), Glutamine 1 mM Gibco life technologies)
Uptake buffer (UB): 150 mM NaCl, 10 mM Hepes-Tris, pH 7.4, 1 mM CaCl2, 2.5 mM KCl, 2.5 mM MgSO4, 10 mM (+) D-glucose.
Flp-in™-CHO (Invitrogen Cat no R758-07) cells stably transfected with mGlyT1b cDNA.
Glycine Uptake Inhibition Assay (mGlyT-1b)
On day 1 mammalian cells, (Flp-in™-CHO), transfected with mGlyT-1b cDNA, were plated at the density of 40,000 cells/well in complete F-12 medium, without hygromycin in 96-well culture plates. On day 2, the medium was aspirated and the cells were washed twice with uptake buffer (UB). The cells were then incubated for 20 min at 22° C. with either (i) no potential competitor, (ii) 10 mM non-radioactive glycine, (iii) a concentration of a potential inhibitor. A range of concentrations of the potential inhibitor was used to generate data for calculating the concentration of inhibitor resulting in 50% of the effect (e.g. IC50, the concentration of the competitor inhibiting glycine uptake of 50%). A solution was then immediately added containing [^3H]-glycine 60 nM (11-16 Ci/mmol) and 25 μM non-radioactive glycine. The plates were incubated with gentle shaking and the reaction was stopped by aspiration of the mixture and washing (three times) with ice-cold UB. The cells were lysed with scintillation liquid, shaken 3 hours and the radioactivity in the cells was counted using a scintillation counter.
For `CSc1cc(C(F)(F)F)cc(C(F)(F)F)c1C(=O)N[C@@H]1COCC[C@H]1NC1CCCC1` (racemic) [Example 13, N-((3SR,4RS)-4-Cyclopentylamino-tetrahydro-pyran-3-yl)-2-methylsulfanyl-4,6-bis-trifluoromethyl-benzamide], half-maximal inhibition (IC50) was put at 0.25 µM.
Turning to `O=C(N[C@@H]1COCC[C@H]1NCC1CC1)c1ccc(C(F)(F)F)cc1C1CC1` (racemic) [Example 18, Cyclopropyl-N-[(3SR,4RS)-4-(cyclopropyl-methyl-amino)-tetrahydro-pyran-3-yl]-4-trifluoro-methylbenzamide], half-maximal inhibition (IC50) required 0.126 µM.
With `COc1cc(C(F)(F)F)cc(C2CC2)c1C(=O)N[C@@H]1COCC[C@H]1N1CCCC1` (racemic) [Example 27, Cyclopropyl-6-methoxy-N-((3SR,4RS) 4 pyrrolidin-1-yl-tetrahydro-pyran-3-yl)-4-trifluoro-methyl-benzamide], half-maximal inhibition (IC50) required 0.0147 µM.
In turn, `CC(C)N[C@@H]1CCOC[C@H]1NC(=O)c1ccc(C(F)(F)F)cc1C1CC1` (racemic) [Example 16, Cyclopropyl-N-((3SR,4RS)-4-isopropylamino-tetrahydro-pyran-3-yl)-4-trifluoro-methylbenzamide] registered a concentration for half-maximal inhibition (IC50) of 0.296 µM.
Then `O=C(N[C@H]1COCC[C@@H]1NC1CCCCC1)c1ccc(C(F)(F)F)cc1C1CC1` [Example 50], with 0.057 µM.
Then `COc1cc(C(F)(F)F)cc(SC)c1C(=O)N[C@@H]1COCC[C@H]1NC1(C)CCCCC1` (racemic) [Example 25, 2-Methoxy-N-[(3SR,4RS)-4-(1-methyl-cyclohexyl-amino)-tetrahydro-pyran-3-yl]-6-methyl-sulfanyl-4-trifluoromethyl-benzamide], with 0.278 µM; and `O=C(N[C@@H]1COCC[C@H]1NC1CCCC1)c1ccc(C(F)(F)F)cc1C1CC1` [Example 44, (−)-N-(trans-4-Cyclopentylamino-tetrahydro-pyran-3-yl)-2-cyclopropyl-4-trifluoromethyl-benzamide], with 0.299 µM; and `COc1cc(C(F)(F)F)cc(SC)c1C(=O)N[C@H]1COCC[C@@H]1N1CCCC1` (single isomer, unassigned) [Example 6, (−)-2-Methoxy-6-methylsulfanyl-N-(4-pyrrolidin-1-yl-tetrahydro-pyran-3-yl)-4-trifluoromethyl-benzamide], with 0.0284 µM.
To `O=C(N[C@@H]1COCC[C@H]1N1CCCC1)c1c(C2CC2)cc(C(F)(F)F)cc1C(F)(F)F` (racemic) [Example 15, 2-Cyclopropyl-N-((3SR,4RS)-4-pyrrolidin-1-yl-tetrahydro-pyran-3-yl)-4,6-bis-trifluoromethyl-benzamide] belongs 0.0132 µM; to `COc1cc(C(F)(F)F)cc(SC)c1C(=O)N[C@H]1COCC[C@@H]1N1CCCC1` (racemic) [Example 2, 2-Methoxy-6-methylsulfanyl-N-((3RS,4SR)-4-pyrrolidin-1-yl-tetrahydro-pyran-3-yl)-4-trifluoromethyl-benzamide], 0.0662 µM.
For `O=C(N[C@@H]1COCC[C@H]1NC1CC1)c1ccc(C(F)(F)F)cc1C1CC1` (racemic) [Example 20, 2-Cyclopropyl-N-((3SR,4RS)-4-cyclopropylamino-tetrahydro-pyran-3-yl)-4-trifluoromethyl-benzamide], the IC50 was found to be 0.193 µM.
To `CC1(N[C@@H]2CCOC[C@H]2NC(=O)c2ccc(C(F)(F)F)cc2C2CC2)CCCC1` (racemic) [Example 29, 2-Cyclopropyl-N-[(3SR,4RS)-4-(1-methyl-cyclo-pentyl-amino)tetra-hydro-pyran-3-yl]-4-trifluoromethyl-benzamide] belongs 0.235 µM; to `O=C(N[C@@H]1COCC[C@H]1N1CCCC1)c1ccc(C(F)(F)F)cc1C1CC1` (racemic) [Example 8, 2-Cyclopropyl-N-((3SR,4RS)-4-pyrrolidin-1-yl-tetrahydro-pyran-3-yl)-4-trifluoromethyl-benzamide], 0.0363 µM.
Then `COc1cc(C(F)(F)F)cc(C2CC2)c1C(=O)N[C@@H]1COCC[C@H]1N1CCCC1` [Example 58], with 0.0076 µM; and `COc1cc(C(F)(F)F)cc(SC)c1C(=O)N[C@H]1COCC[C@H]1N1CCCC1` (racemic) [Example 1, 2-Methoxy-6-methylsulfanyl-N-((3RS,4RS)-4-pyrrolidin-1-yl-tetrahydro-pyran-3-yl)-4-trifluoromethyl-benzamide], with 0.261 µM; and `O=C(N[C@H]1COCC[C@@H]1NC1CCCC1)c1ccc(C(F)(F)F)cc1C1CC1` (stereo in doubt) [Example 43, (+)-N-(trans-4-Cyclopentylamino-tetrahydro-pyran-3-yl)-2-cyclopropyl-4-trifluoromethyl-benzamide], with 0.0788 µM.
Then `CC(N[C@@H]1CCOC[C@H]1NC(=O)c1ccc(C(F)(F)F)cc1C1CC1)C1CC1` (mixture of isomers) [Example 30, 2-Cyclopropyl-N-[(3RS,4SR)-4-(1-cyclopropyl-ethylamino)-tetrahydro-pyran-3-yl]-4-trifluoro-methylbenzamide], with 0.0838 µM.
The molecule `COc1cc(C(F)(F)F)cc(SC)c1C(=O)N[C@H]1COCC[C@@H]1N1CCCC1` (single isomer, unassigned) [Example 5, (+)-2-Methoxy-6-methylsulfanyl-N-(4-pyrrolidin-1-yl-tetrahydro-pyran-3-yl)-4-trifluoromethyl-benzamide] displayed an IC50 of 0.118 µM.
To `Cc1cc(C(F)(F)F)cc(C(F)(F)F)c1C(=O)N[C@@H]1COCC[C@H]1N1CCCC1` [Example 40, (−)-2-Methyl-N-trans-(4-pyrrolidin-1-yl-tetrahydro-pyran-3-yl)-4,6-bis-trifluoromethyl-benzamide] belongs 0.0955 µM; to `COc1cc(C(F)(F)F)cc(SC)c1C(=O)N[C@H]1CCOC[C@H]1N1CCCC1` [Example 64, (−)-2-Methoxy-6-methylsulfanyl-N-(3-pyrrolidin-1-yl-tetrahydro-pyran-4-yl)-4-trifluoro-methyl-benzamide], 0.189 µM; to `COc1cc(C(F)(F)F)cc(C)c1C(=O)N[C@@H]1COCC[C@H]1N1CCCC1` (racemic) [Example 22, 2-Methoxy-6-methyl-N-((3SR,4RS)-4-pyrrolidin-1-yl-tetrahydro-pyran-3-yl)-4-trifluoro-methylbenzamide], 0.105 µM.
To `O=C(N[C@@H]1COCC[C@H]1N1C[C@H]2C[C@H]2C1)c1ccc(C(F)(F)F)cc1C1CC1` [Example 35, N-[(3S,4R)-4-(3-Aza-bicyclo[3.1.0]hex-3-yl)-tetra-hydro-pyran-3-yl]-2-cyclopropyl-4-trifluoromethyl-benzamide] belongs 0.0265 µM; to `O=C(N[C@@H]1COCC[C@H]1N1CCCC1)c1c(C2CC2)cc(C(F)(F)F)cc1C(F)(F)F` [Example 48, (−)-2-Cyclopropyl-N-(4-pyrrolidin-1-yl-tetrahydro-pyran-3-yl)-4,6-bis-trifluoromethyl-benzamide], 0.02 µM.
`Cc1cc(C(F)(F)F)cc(C)c1C(=O)N[C@H]1COCC[C@@H]1N1CCCC1` [Example 51] displayed a half-maximal inhibitory concentration (IC50) of 0.0253 µM.
Then `CSc1cc(C(F)(F)F)cc(C(F)(F)F)c1C(=O)N[C@H]1COCC[C@@H]1N1CCCC1` [Example 41, (+)-2-Methylsulfanyl-N-trans-(4-pyrrolidin-1-yl-tetrahydro-pyran-3-yl)-4,6-bis-trifluoromethyl-benzamide], with 0.0447 µM.
Turning to `CSc1cc(C(F)(F)F)cc(C(F)(F)F)c1C(=O)N[C@@H]1COCC[C@H]1N1CCCC1` [Example 42, (−)-2-Methylsulfanyl-N-trans-(4-pyrrolidin-1-yl-tetrahydro-pyran-3-yl)-4,6-bis-trifluoromethyl-benzamide], the half-maximal inhibitory concentration (IC50) is 0.027 µM.
For the molecule `O=C(N[C@H]1COCC[C@@H]1N1CCCC1)c1ccc(C(F)(F)F)cc1C1CC1` [Example 38, (−)-2-Cyclopropyl-N-(4-pyrrolidin-1-yl-tetrahydro-pyran-3-yl)-4-trifluoromethyl-benzamide], the IC50 came out at 0.0834 µM.
In the case of `CSc1cc(C(F)(F)F)cc(C(F)(F)F)c1C(=O)N[C@@H]1COCC[C@H]1N1CCCC1` (racemic) [Example 9, 2-Methylsulfanyl-N-((3SR,4RS)-4-pyrrolidin-1-yl-tetrahydro-pyran-3-yl)-4,6-bis-trifluoromethyl-benzamide], the 50% inhibitory concentration (IC50) amounted to 0.0165 µM.
Consider `O=C(N[C@H]1COCC[C@@H]1N1CCCC1)c1c(C2CC2)cc(C(F)(F)F)cc1C(F)(F)F` [Example 47, (+)-2-Cyclopropyl-N-(4-pyrrolidin-1-yl-tetrahydro-pyran-3-yl)-4,6-bis-trifluoromethyl-benzamide], for which inhibition was half-maximal at 0.016 µM (IC50).
Then `CCc1cc(C(F)(F)F)cc(CC)c1C(=O)N[C@@H]1COCC[C@H]1N1CCCC1` (racemic) [Example 23, 2,6-Diethyl-N-((3SR,4RS)-4-pyrrolidin-1-yl-tetrahydro-pyran-3-yl)-4-trifluoro-methylbenzamide], with 0.0584 µM; and `COc1cc(C(F)(F)F)cc(C)c1C(=O)N[C@H]1COCC[C@@H]1N1CCCC1` [Example 53, (+)-2-Methoxy-6-methyl-N-(4-pyrrolidin-1-yl-tetrahydro-pyran-3-yl)-4-trifluoromethyl-benzamide], with 0.0782 µM.
